The nature of series [1]: Fasted state simulated gastric fluid (FaSSGF) kinetic solubility assay. To be noted: kinetic solubility in FaSSGF, 0-24 h. The format is physicochemical. The method, then: (§1) The content of opicapone in kinetic solubility studies was analysed by HPLC coupled to a UV/Vis detector (Waters series, USA). A C18 column was used. The mobile phase consisted of 0.1% o-phophoric acid and acetonitrile (68:32 v/v).
Kinetic solubility studies on the opicapone solid dispersion were performed at room temperature at a loading equivalent to˜10 mg of opicapone per mL of FaSSGF, in a total of 5 mL of medium. Samples were tested at 0, 0.5, 1, 2, 4 and 24 hours (Klein, AAPS J., 2010, 12, 397-406).
(§2) Area under the Concentration Curve (AUC), Cmax and other pharmacokinetic parameters were calculated using GraphPad Prism 7 for Windows (GraphPad Software, USA).

A short description of series [2]: Fasted state simulated intestinal fluid (FaSSIF) kinetic solubility assay. The format is physicochemical. To be noted: kinetic solubility in FaSSIF, 0-24 h. The method, then: as §1
Kinetic solubility studies on the opicapone solid dispersion were performed at room temperature at a loading equivalent to˜75 mg of opicapone per mL of FaSSIF, in a total of 5 mL of medium. Samples were tested at 0, 0.5, 1, 2, 4 and 24 hours (Klein, AAPS J., 2010, 12, 397-406).
as §2

Series [3] can be described thus: In vivo pharmacokinetics after oral administration. The settings on record: male Wistar rats, 3 mg/kg of opicapone, plasma. The procedure: The pharmacokinetics of solid dispersions of amorphous opicapone were evaluated in male Wistar rats, after oral administration of Sample 1, 4 or 6, or a control sample of micronised crystalline opicapone, at a dose of 3 mg/kg of opicapone. The exposure of these solid dispersions, formulated as a HPMC suspensions (50 mg of opicapone per 100 mL of 0.2% HPMC), were compared with the exposure of micronised crystalline opicapone, at a dose of 3 mg/kg of opicapone.
During the studies, blood was collected at different time points, from tail vein, spun at 1500×g in a refrigerated centrifuge (4° C.) for 15 min, and the plasma obtained was stored at −80° C. until further analysis. The plasma samples collected from twenty animals (140 samples), were analysed for opicapone exposure. The bioanalysis involved the use of LC-MS/MS after plasma precipitation.

A short description of series [4]: Particle size distribution (circle equivalent diameter) by SEM. In kind it is physicochemical. To be noted: particle size distribution (equivalent circular diameter) after micronisation, MC JETMILL 200. The procedure: A Phenom Pro-X Electron microscope (PhenomWorld, Thermo Fisher Scientific, USA) equipped with a CeB6 electron source and backscatter electron detector was used to determine the morphology and particle size of the samples.
The powder was placed on conductive adhesive tape. The holder for non-conductive samples was used. The excess of sample (loosely bound to the tape) was removed using compressed air.
Particle morphology was assessed by Automated Image Mapping software and particle size determination was made by Particlemetric software.

As a reminder, the AUC is concentration integrated over time. A higher AUC goes with more exposure. In general, Cmax refers to the peak of the concentration-time curve. By AUC(0-t) is commonly meant the area under the concentration-time curve up to a stated or last time point. Consider `Cc1c(Cl)c(C)[n+]([O-])c(Cl)c1-c1noc(-c2cc(O)c(O)c([N+](=O)[O-])c2)n1` [Opicapone Control, opicapone], for which the AUC was 7.625 µg·h/mL in series [1] (Experiment 1); 5.75 µg·h/mL in series [1] (Experiment 2); 5.86 µg·h/mL in series [1] (Experiment 3); 1589 µg·h/mL in series [2] (Experiment 1); 1310 µg·h/mL in series [2] (Experiment 2); 1400 µg·h/mL in series [2] (Experiment 3). The Cmax in series [1] (Experiment 1) was 300 ng/mL; in series [1] (Experiment 2), 300 ng/mL; in series [1] (Experiment 3), 260 ng/mL; in series [2] (Experiment 1), 69000 ng/mL; in series [2] (Experiment 2), 86000 ng/mL; in series [2] (Experiment 3), 89000 ng/mL. In series [3] (rat), this molecule came in with a Cmax of 379 ng/mL. For the same molecule, the tmax is 24 h in series [1] (Experiment 2); 24 h in series [1] (Experiment 3); 24 h in series [2] (room temperature, Experiment 1); 2 h in series [2] (Experiment 2); 2 h in series [3] (rat). The tlast in series [3] was 8 h. In series [3] (rat), the area under the curve AUC(0-t) was 1.4 µg·h/mL. In addition, the concentration at 8 h in series [3] (rat, read-out: Clast) was determined as 78.6 ng/mL. For the same molecule, the D10 in series [4] is given as ≥ 4 μm. Also, the D50 in series [4] is given as 10-40 μm. The D95 in series [4] is given as ≤ 80 μm.

The values above are taken from US20230241046A1, “SOLID DISPERSION OF OPICAPONE” (BIAL - PORTELA & CA, S.A., priority 2020, published 2023).
